Reference: patent publication US7595313B2, “Nitric oxide donating diuretic compounds, compositions and methods of use” (NicOx, S.A., priority 2005, dated 2009)

Experiments:
Male Wistar rats = experiment: Determination of the diuresis (urine volume over 6 hours after oral dosing); format: in vivo, rat
Procedure: Procedures were approved by the Institutional Animal Care and Use Committee of NitroMed, Inc. Male Wistar rats (180-200 g) were purchased from Charles River Laboratories (Kingston, N.Y. or Raleigh, N.C.) and allowed to acclimate in the facility for a period of at least 72 h. Rats were randomly housed 2-3 per cage in a light-controlled room with a 12 hour light/dark cycle and allowed ad libitum access to food and water.
Prior to the experiment, each rat was placed in a metabolic cage and allowed to acclimate for a period of 24-48 hours with food and water ad libitum. During this acclimation period, rats received mash food instead of pellet food to prevent contamination of the urine samples. All rats were fasted for 18 hours prior to experimentation. In addition, water was removed 90 minutes prior to oral dosing with test compound or vehicle.
The test compounds were prepared immediately prior to dosing in 0.5% Methocel (F4M Premium Hydroxypropyl Methylcellulose, lot # PF12012N12; Dow Chemical Company, USA) and homogenized with a glass/Teflon pestle motorized homogenizer. Gently vortexed test compounds were administered intragastrically (p.o.; 30 mg/kg or 3 mg/kg) at a dose volume of 3 ml per rat using an 18 gauge gavage needle. Urine volume (ml) was monitored and urine was collected for subsequent electrolyte analysis over a 6 hours period. […] Data are expressed as mean ±SEM; n=6 or 7.

[1] = p.o. 30 mg/kg in 0.5% Methocel, male Wistar rats, 6 hours, mean ± SEM, n=6 or 7

SMILES | Urine collected in 6 hours (mL) (30 mg/kg) (Male Wistar rats; [1]) | melting point | Urine collected in 6 hours (mL) (30 mg/kg) (Male Wistar rats; rat, in vivo, po)
NS(=O)(=O)c1cc2c(cc1C(F)(F)F)NC(CCCCCO[N+](=O)[O-])NS2(=O)=O (stereo not shown) [Example 2, 2H-1,2,4-Benzothiadiazine-7-sulfonamide, 3,4-dihydro-3-[5-(nitrooxy)pentyl]-6-(trifluoromethyl)-, 1,1-dioxide] | 5.7 ± 0.7 mL | 171 to 189 °C | 
NS(=O)(=O)c1cc2c(cc1C(F)(F)F)NC(CCCO[N+](=O)[O-])NS2(=O)=O (stereo not shown) [Example 3d, 2H-1,2,4-Benzothiadiazine-7-sulfonamide, 3,4-dihydro-3-[3-(nitrooxy)propyl]-6-(trifluoromethyl)-, 1,1-dioxide] | 5.3 ± 0.8 mL | 165 °C (dec.) | 
NS(=O)(=O)c1cc2c(cc1Cl)N=C(NC(=O)CCCCO[N+](=O)[O-])NS2(=O)=O [Example 4c, Pentanamide, N-[7-(aminosulfonyl)-6-chloro-1,1-dioxido-2H-1,2,4-benzothiadiazin-3-yl]-5-(nitrooxy)-] | 3.8 ± 0.7 mL | 222 to 225 °C | 
NS(=O)(=O)c1cc2c(cc1Cl)NC(CCC(CO[N+](=O)[O-])O[N+](=O)[O-])NS2(=O)=O (stereo not shown) [Example 6b, 2H-1,2,4-Benzothiadiazine-7-sulfonamide, 3-[3,4-bis(nitrooxy)butyl]-6-chloro-3,4-dihydro-, 1,1-dioxide] |  | 153 to 155 °C | 6.8 ± 0.5 mL
NS(=O)(=O)c1cc2c(cc1C(F)(F)F)NC(CCC(CO[N+](=O)[O-])O[N+](=O)[O-])NS2(=O)=O (stereo not shown) [Example 7, 2H-1,2,4-benzothiadiazine-7-sulfonamide, 3-[3,4-bis(nitrooxy)butyl]-3,4-dihydro-6-(trifluoromethyl)-, 1,1-dioxide] |  | 157 to 160 °C (dec.) | 5.7 ± 0.4 mL
NS(=O)(=O)c1cc2c(cc1Cl)NC(CCCO[N+](=O)[O-])NS2(=O)=O (stereo not shown) [Example 8, 2H-1,2,4-Benzothiadiazine-7-sulfonamide, 6-chloro-3,4-dihydro-3-[3-(nitrooxy)propyl]-, 1,1-dioxide] | 6.2 ± 0.7 mL | 178 to 181 °C | 
Cc1c(C2Nc3cc(Cl)c(S(N)(=O)=O)cc3S(=O)(=O)N2)no[n+]1[O-] (stereo not shown) [Example 9b, 2H-1,2,4-Benzothiadiazine-7-sulfonamide, 6-chloro-3,4-dihydro-3-(4-methyl-5-oxido-1,2,5-oxadiazol-3-yl)-, 1,1-dioxide] | 6.7 ± 0.8 mL | 242 to 243 °C (dec.) | 
NS(=O)(=O)c1cc2c(cc1Cl)NC(CCCC(=O)NC[C@H](CO[N+](=O)[O-])O[N+](=O)[O-])=NS2(=O)=O [Example 11, 4H-1,2,4-Benzothiadiazine-3-butanamide, 7-(aminosulfonyl)-N-[(2R)-2,3-bis(nitrooxy)propyl]-6-chloro-, 1,1-dioxide] |  | > 220 °C | 3.7 ± 0.3 mL
NS(=O)(=O)c1cc2c(cc1Cl)NC(CCC(=O)NCCOCCO[N+](=O)[O-])=NS2(=O)=O [Example 13, 4H-1,2,4-Benzothiadiazine-3-propanamide, 7-(aminosulfonyl)-6-chloro-N-[2-[2-(nitrooxy)ethoxy]ethyl]-, 1,1-dioxide] | 2.2 ± 0.5 mL | 175 to 178 °C | 
NS(=O)(=O)c1cc2c(cc1Cl)NC(CCCC(=O)NCCO[N+](=O)[O-])=NS2(=O)=O [Example 14, 4H-1,2,4-Benzothiadiazine-3-butanamide, 7-(aminosulfonyl)-6-chloro-N-[2-(nitrooxy)ethyl]-, 1,1-dioxide] | 4.0 ± 0.4 mL | 168 to 170 °C | 
NS(=O)(=O)c1cc2c(cc1Cl)NC1(CCN(C(=O)CCCCO[N+](=O)[O-])CC1)NS2(=O)=O [Example 18b, Spiro[2H-1,2,4-benzothiadiazine-3(4H), 4′-piperidine]-7-sulfonamide, 6-chloro-1′-[5-(nitrooxy)-1-oxopentyl]-, 1,1-dioxide] |  | 155 °C (dec.) | 
NS(=O)(=O)c1cc2c(cc1C(F)(F)F)NC(CCCCCO)NS2(=O)=O (stereo not shown) [Example 25b, 2H-1,2,4-Benzothiadiazine-7-sulfonamide, 3,4-dihydro-3-(5-hydroxypentyl)-6-(trifluoromethyl)-, 1,1-dioxide] |  | 97 °C | 
NS(=O)(=O)c1cc2c(cc1Cl)NC(Cc1ccc(CO[N+](=O)[O-])cc1)=NS2(=O)=O [Example 29d, 4H-1,2,4-Benzothiadiazine-7-sulfonamide, 6-chloro-3-[[4-[(nitrooxy)methyl]phenyl]methyl]-, 1,1-dioxide] |  | > 260 °C | 
NS(=O)(=O)c1cc2c(cc1Cl)NCN(CCCO[N+](=O)[O-])S2(=O)=O [Example 35b, 2H-1,2,4-Benzothiadiazine-7-sulfonamide, 6-chloro-3,4-dihydro-2-[3-(nitrooxy)propyl]-, 1,1-dioxide] |  | 148 to 151 °C (dec.) | 
NS(=O)(=O)c1cc2c(cc1Cl)NCN(CCCCCO)S2(=O)=O [Example 60, 2H-1,2,4-Benzothiadiazine-7-sulfonamide, 6-chloro-3,4-dihydro-2-(5-hydroxypentyl)-, 1,1-dioxide] |  | 177 to 179 °C | 
NS(=O)(=O)c1cc2c(cc1C(F)(F)F)NC(CCCCO[N+](=O)[O-])NS2(=O)=O (stereo not shown) [Example 61b, 2H-1,2,4-Benzothiadiazine-7-sulfonamide, 3,4-dihydro-3-[4-(nitrooxy)butyl]-6-(trifluoromethyl)-, 1,1-dioxide] |  | 171 to 177 °C | 
NS(=O)(=O)c1cc2c(cc1Cl)NCN(CCCCCCO)S2(=O)=O [Example 66, 2H-1,2,4-Benzothiadiazine-7-sulfonamide, 6-chloro-3,4-dihydro-2-(6-hydroxyhexyl)-, 1,1-dioxide] |  | 176 to 179 °C | 
NS(=O)(=O)c1cc2c(cc1Cl)NCN(Cc1cc(CO[N+](=O)[O-])cc(OCCCCBr)c1)S2(=O)=O [Example 68d, 2H-1,2,4-Benzothiadiazine-7-sulfonamide, 2-[[3-(4-bromobutoxy)-5[(nitrooxy)methyl]phenyl]methyl]-6-chloro-3,4-dihydro-, 1,1-dioxide] |  | 80 °C | 
NS(=O)(=O)c1cc2c(cc1Cl)NC(CCO[N+](=O)[O-])NS2(=O)=O (stereo not shown) [Example 74b, 2H-1,2,4-Benzothiadiazine-7-sulfonamide, 6-chloro-3,4-dihydro-3-[2-(nitrooxy)ethyl]-, 1,1-dioxide] |  | 113 to 117 °C | 
NS(=O)(=O)c1cc2c(cc1Cl)NC(CCc1cc(CO)cc(CO)c1)NS2(=O)=O (stereo not shown) [Example 79d, 2H-1,2,4-Benzothiadiazine-7-sulfonamide, 3-[2-[3,5-bis(hydroxymethyl)phenyl]ethyl]-6-chloro-3,4-dihydro-, 1,1-dioxide] |  | 218 °C | 
NS(=O)(=O)c1cc2c(cc1Cl)NCN(CC1CO1)S2(=O)=O (stereo not shown) [Example 81, 2H-1,2,4-benzothiadiazine-7-sulfonamide, 6-chloro-3,4-dihydro-2-(oxiranylmethyl)-, 1,1-dioxide] |  | 192 to 197 °C | 
